Source: PubChem BioAssay AID1053178 (The Scripps Research Institute Molecular Screening Center, 2014)
Calls of active or inactive are those of the source.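 The calls were made as follows: active = IC50 at or below 10 µM; inactive = IC50 above 10 µM.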

Target: Trace amine-associated receptor 1 (Homo sapiens) (UniProt Q96RJ0)
Assay: TAAR1 antagonists lowering PEA-driven cAMP, late-stage follow-up, cell-based, fluorescence, human, MDRUN002 (AID 1053178)
Details: CHO TAAR1 cells, cAMP TR-FRET, PEA-stimulated antagonism

Sequence of Trace amine-associated receptor 1 (Homo sapiens) (Q96RJ0 whole entry, looked up): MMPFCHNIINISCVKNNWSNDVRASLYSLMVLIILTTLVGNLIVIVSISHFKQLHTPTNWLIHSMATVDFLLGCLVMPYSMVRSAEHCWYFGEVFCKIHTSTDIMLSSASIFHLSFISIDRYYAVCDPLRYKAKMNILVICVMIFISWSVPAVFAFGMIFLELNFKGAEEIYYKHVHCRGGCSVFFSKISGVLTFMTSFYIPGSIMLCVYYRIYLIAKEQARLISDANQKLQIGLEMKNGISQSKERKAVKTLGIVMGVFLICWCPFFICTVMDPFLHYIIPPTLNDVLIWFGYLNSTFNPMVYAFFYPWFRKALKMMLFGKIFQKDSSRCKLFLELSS

Compound | IC50
Cc1ccc(C(=O)CCN2CCC(c3ccccc3)C2)cc1 (configuration not stated) | > 37.4 µM (inactive)
COc1cc(C(=O)CCN2CCC(c3ccccc3)C2)cc(OC)c1OC (configuration not stated) | > 37.4 µM (inactive)
N#Cc1c(C(F)(F)F)cc(-c2ccc(Cl)cc2)nc1SCC(=O)N1CCCCCC1 | inactive
CC(CN1CCCC1Cc1ccccc1)C(=O)c1ccc2c(c1)OCCO2 (configuration not stated) | > 37.4 µM (inactive)

The remaining lines, values ahead:

IC50 | Compound
0.179 µM | N#Cc1c(C(F)(F)F)cc(-c2ccc(Cl)cc2)nc1SCC(=O)N1CCCC1
0.00433 µM | N#Cc1c(C(F)(F)F)cc(-c2ccc(Cl)cc2)nc1SCC(=O)Nc1ncccn1
> 37.4 µM (inactive) | O=C(CCN1CCC(c2ccccc2)C1)c1ccccc1 (configuration not stated)
